{"source": "paper PMC10385282", "about": "“Luteolin Protects Pancreatic β Cells against Apoptosis through Regulation of Autophagy and ROS Clearance” (Pharmaceuticals, 2023)", "target": "T1, Drak2 (death-associated protein kinase-related apoptosis-inducing kinase-2) (Homo sapiens, UniProt O94768)", "T1 construct": "gene STK17B", "T1 sequence (O94768 1-372)": "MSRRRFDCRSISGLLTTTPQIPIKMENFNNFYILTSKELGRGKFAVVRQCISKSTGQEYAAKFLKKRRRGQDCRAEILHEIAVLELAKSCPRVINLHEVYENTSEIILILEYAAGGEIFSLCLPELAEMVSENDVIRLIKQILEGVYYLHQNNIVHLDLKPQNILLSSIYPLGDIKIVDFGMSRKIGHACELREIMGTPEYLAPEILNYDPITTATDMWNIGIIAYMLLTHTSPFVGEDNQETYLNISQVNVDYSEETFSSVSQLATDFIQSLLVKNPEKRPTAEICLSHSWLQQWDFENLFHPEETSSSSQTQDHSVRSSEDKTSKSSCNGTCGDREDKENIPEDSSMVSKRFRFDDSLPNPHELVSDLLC", "assay": "biochemical", "parameters": "ADP-Glo kinase assay, luminescence, residual Drak2 activity at 20 uM compound", "settings": "read-out: % of control remaining", "protocol": "ADP-Glo kits (Promega, Madison, WI; #V6903) were used for Drak2 inhibitor screening. Drak2 activity was measured and calculated from the amount of ADP generated from the enzyme reaction. The compounds were dissolved in DMSO and diluted to the indicated concentration for the screening assay. Drak2 and substrate ATP were diluted in 1X Buffer (HEPES 50 mM (pH 7.0), NaN3 0.02%, Orthovanadate 0.1 mM, 5 mM MgCl2, 0.01% (w/v) bovine serum albumin). The 5 µL kinase reaction was performed using 1X kinase buffer that contained 1 μL of compound, 2 μL of Drak2 (160 nM) and 2 μL of substrate ATP (20 μM), and incubated for 2 h at room temperature. Then, 2.5 μL of ADP-Glo™ Reagent was added to each reaction and incubated for 2 h at room temperature to deplete the remaining ATP. Finally, 5 μL of Kinase Detection Reagent was added to each reaction to convert ADP to ATP via the luciferase reaction, which was detected using an EnVision multilabel plate reader. 22b was used as a positive control in the assay. Our previous work validated that Drak2 inhibitors can prevent pancreatic β cells from undergoing lipotoxicity-induced cell apoptosis. Therefore, we established a kinase activity detection assay in vitro using the ADP-Glo^TM Kinase Assay kit (Promega, Madison, WI, USA) and screened the Natural Product and Derivatives Focus Library to identify small molecules that can inhibit Drak2 activity. […]", "data": [{"smiles": "O=c1cc(-c2ccc(O)c(O)c2)oc2cc(O)cc(O)c12", "note": "[luteolin]", "values": [{"measurement": "remaining activity at 20 µM", "value": "7.74 ± 1.75", "unit": "%"}]}]}
